The text below walks through data of patent publication US9834542B2, “LXR modulators” (BRISTOL-MYERS SQUIBB COMPANY, priority 2013, dated 2017).

The structures appear in SMILES notation.

This experiment has as its target T1, LXRβ (Homo sapiens, UniProt P55055).
T1 construct: Co-transfection expression plasmids, comprising full-length LXRα (pCMX-h LXRα[…] or LXRβ (pCMX-hLXRβ)); expressed in transfected cells; host or cells: CV-1 African Green Monkey Kidney Cells
T1 sequence (P55055 1-460): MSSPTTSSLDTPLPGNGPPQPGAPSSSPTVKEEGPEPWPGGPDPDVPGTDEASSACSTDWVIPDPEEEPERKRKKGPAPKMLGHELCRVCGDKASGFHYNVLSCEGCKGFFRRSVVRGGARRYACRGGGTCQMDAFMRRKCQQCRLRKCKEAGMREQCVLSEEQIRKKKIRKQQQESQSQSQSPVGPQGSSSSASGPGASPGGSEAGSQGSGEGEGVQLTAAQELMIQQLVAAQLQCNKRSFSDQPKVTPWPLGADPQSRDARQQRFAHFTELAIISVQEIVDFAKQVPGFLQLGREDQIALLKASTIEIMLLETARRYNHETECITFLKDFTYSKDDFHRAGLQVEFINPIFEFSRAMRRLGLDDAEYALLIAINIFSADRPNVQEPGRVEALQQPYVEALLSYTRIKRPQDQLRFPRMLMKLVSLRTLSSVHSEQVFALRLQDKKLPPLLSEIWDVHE
T1 sequence (P19793 1-462 partner): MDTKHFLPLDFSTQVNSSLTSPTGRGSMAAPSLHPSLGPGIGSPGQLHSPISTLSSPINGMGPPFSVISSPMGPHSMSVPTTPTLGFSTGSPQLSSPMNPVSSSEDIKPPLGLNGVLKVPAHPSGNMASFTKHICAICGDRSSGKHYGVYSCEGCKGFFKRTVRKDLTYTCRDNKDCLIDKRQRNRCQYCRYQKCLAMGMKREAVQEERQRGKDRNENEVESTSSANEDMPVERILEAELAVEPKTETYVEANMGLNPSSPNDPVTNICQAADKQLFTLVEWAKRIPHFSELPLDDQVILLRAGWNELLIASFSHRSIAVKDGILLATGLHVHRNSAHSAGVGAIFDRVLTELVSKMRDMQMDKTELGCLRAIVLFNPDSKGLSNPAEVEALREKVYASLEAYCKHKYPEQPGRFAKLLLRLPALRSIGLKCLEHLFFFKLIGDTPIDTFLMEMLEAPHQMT
The experiment in a line: Co-transfection assay (LXRE luciferase reporter), LXRβ. The class given is cell-based. Details: % Efficacy: concentration or dose not given beside the values. To be noted: for EC50: CV-1 cells transfected with pCMX-hLXRβ and LXREx1-Tk-Luciferase, 20 hours incubation; for Emax: read-out: % Efficacy. An excerpt:
To measure the ability of compounds to activate or inhibit the transcriptional activity of LXR in a cell based assay, the co-transfection assay was used. It has been shown that LXR functions as a heterodimer with RXR. For the co-transfection assay, expression plasmids for LXRα and LXRβ are introduced separately via transient transfection into mammalian cells along with a luciferase reporter plasmid that contains one copy of a DNA sequence that is bound by LXR-RXR heterodimers (LXRE; Willy, P. et. al. 1995). LXRs heterodimerize with the endogenous RXR. Treatment of transfected cells with an LXR agonist increases the transcriptional activity of LXR, which is measured by an increase in luciferase activity.
CV-1 African Green Monkey Kidney Cells
Co-transfection expression plasmids, comprising full-length LXRα (pCMX-h LXRα[…] or LXRβ (pCMX-hLXRβ), reporter plasmid (LXREx1-Tk-Luciferase), and control (pCMX-Galactosidase expression vector) (Willey et al. Genes & Development 9 1033-1045 (1995)).
CV-1 cells were prepared 24 hours prior to the experiment by plating them into T-175 flasks or 500 cm^2 dishes in order to achieve 70-80% confluency on the day of the transfection. The number of cells to be transfected was determined by the number of plates to be screened. Each well of a 384 well plate requires 1.5×10^4 cells. DNA Transfection Reagent was prepared by mixing the required plasmid DNAs with a cationic lipid transfection reagent Transit 2020 (Mirus Bio) for CV1 by following the instructions provided with the reagents. Optimal DNA amounts were determined empirically per cell line and size of vessel to be transfected. For each T175 cm^2 flask a total of 59 ug for CV1 of DNA, 133 uL Transit2020 and 4.5 mL DMEM for CV1 was mixed and added. Cells were then incubated at least 5 hours at 37° C. to prepare screening cells.
Luciferase assay reagent (*Steady-Glo Luciferase Assay System by Promega, CAT#E2550) was prepared by combining before use:
Assay plates were prepared by dispensing 5 μL of compound per well of a 384 well plate to achieve final compound concentration of 10 μM and no more than 0.5% DMSO. Media was removed from the screening cells, the cells trypsinized, harvested cells by centrifugation, counted, and plated at a density of approximately 1.5×10^4 cells in the 384 well assay plate prepared above in a volume of about 95 uL. Assay plates containing both compounds and screening cells (100 μL in total volume) were incubated for 20 hours at 37° C.
After incubation with compounds, media was removed from the cells and luciferase assay reagent (50 μL/well) added. After ˜2 minutes at ambient temperature, the assay plates were read on a luminometer (PE Biosystems Northstar reader with on-board injectors, or Envision(Perkin Elmer) or equivalent).
The LXR/LXRE co-transfection assay can be used to establish the EC50/IC50 values for potency and percent activity or inhibition for efficacy. Efficacy defines the activity of a compound relative to a high control 1-(2,4-difluorobenzyl)-2-oxo-6-(4-phenoxyphenyl)-4-(trifluoromethyl)-1,2-dihydropyridine-3-carbonitrileor a low control (DMSO/vehicle). The dose response curves are generated from a 11 point curve with concentrations differing by ½ LOG units. Each point represents the average of 2 wells of data from duplicate 384 well plate.
The data from this assay is fitted to the following equation, from which the EC50 value may be solved: Y=Bottom+(Top−Bottom)/(1+10^((logEC50-X)*HillSlope)).
The EC50/IC50 is therefore defined as the concentration at which an agonist or antagonist elicits a response that is halfway between the Top (maximum) and Bottom (baseline) values. The EC50/IC50 values represented are the averages of at least 2 and normally 3 independent experiments. […]

[1] abbreviates: LXRβ co-transfection, relative to high control 1-(2,4-difluorobenzyl)-2-oxo-6-(4-phenoxyphenyl)-4-(trifluoromethyl)-1,2-dihydropyridine-3-carbonitrile.

With `Cc1nc(-c2cc(-c3cccc(S(C)(=O)=O)c3)ccc2-n2cc(C(F)(F)F)nc2C)c(-c2ccc3c(c2)CCC3)o1` [Example 474, 5-(2,3-dihydro-1H-inden-5-yl)-2-methyl-4-(4-(2-methyl-4-(trifluoromethyl)-1H-imidazol-1-yl)-3′-(methylsulfonyl)biphenyl-3-yl)oxazole], the EC50 (usually the concentration needed to bring the measured effect to its halfway point) turned out to be 119 nM. For the same compound, under setting [1], the Emax came out at 53%.
The corresponding values for `Cc1nc(C(F)F)c(Cl)n1-c1ccc(-c2cc(F)c(CO)c(S(C)(=O)=O)c2)cc1-n1nncc1-c1ccc(OC(F)(F)F)cc1` [Example 173, {4′-[5-chloro-4-(difluoromethyl)-2-methyl-1H-imidazol-1-yl]-3-fluoro-5-(methylsulfonyl)-3′-(5-{4-[(trifluoromethyl)oxy]phenyl}-1H-1,2,3-triazol-1-yl)biphenyl-4-yl}methanol] are 264 nM and 148%.
`Cc1nc(C(F)F)cn1-c1ccc(-c2cccc(S(C)(=O)=O)c2)cc1-n1nncc1-c1ccc(OC(F)(F)F)cc1` [Example 6]: the EC50 came to 848 nM. The Emax under setting [1] came out at 93%.
With `Cc1nc(C(F)(F)F)cn1-c1ccc(-c2cccc(S(C)(=O)=O)c2)cc1-n1nncc1Cc1ccccc1Cl` [Example 219, 5-(2-chlorobenzyl)-1-(4-(2-methyl-4-(trifluoromethyl)-1H-imidazol-1-yl)-3′-(methylsulfonyl)-[1,1′-biphenyl]-3-yl)-1H-1,2,3-triazole], the midpoint of the response, the EC50, lay at 1520 nM. Besides, the Emax under setting [1] is 44%.
On the same counts, the results for `Cc1ccc(C(C)c2cnnn2-c2cc(-c3cc(F)c(CO)c(S(C)(=O)=O)c3)ccc2-n2cc(C(F)(F)F)nc2C)cc1` (stereo not shown) [Example 9, (3-fluoro-3′-{5-[1-(4-methylphenyl)ethyl]-1H-1,2,3-triazol-1-yl}-5-(methylsulfonyl)-4′-[2-methyl-4-(trifluoromethyl)-1H-imidazol-1-yl]biphenyl-4-yl)methanol] are 66 nM and 75%.
For the compound `Cc1nc(C(F)(F)F)cn1-c1ccc(-c2cccc(S(C)(=O)=O)c2)cc1-n1nncc1-c1ccc(C(F)F)cc1` [Example 5, 5-[4-(difluoromethyl)phenyl]-1-{3′-(methylsulfonyl)-4-[2-methyl-4-(trifluoromethyl)-1H-imidazol-1-yl]biphenyl-3-yl}-1H-1,2,3-triazole], the EC50 worked out at 258 nM. In addition, the Emax under setting [1] came to 91%.
The corresponding values for `CCC(F)(F)c1cn(-c2ccc(-c3cc(F)c(CO)c(S(C)(=O)=O)c3)cc2-c2nc(C)oc2-c2ccc(OC(F)(F)F)cc2)c(C)n1` [Example 518, (4′-(4-(1,1-difluoropropyl)-2-methyl-1H-imidazol-1-yl)-3-fluoro-3′-(2-methyl-5-(4-(trifluoromethoxy)phenyl)oxazol-4-yl)-5-(methylsulfonyl)-[1,1′-biphenyl]-4-yl)methanol] are 107 nM and 49%.
For `Cc1ccc(-c2oc(C)nc2-c2cc(-c3cccc(S(C)(=O)=O)c3)ccc2-n2cc(C(F)(F)F)nc2C)c(Cl)n1` [Example 422, 5-(2-chloro-6-methylpyridin-3-yl)-2-methyl-4-(4-(2-methyl-4-(trifluoromethyl)-1H-imidazol-1-yl)-3′-(methylsulfonyl)biphenyl-3-yl)oxazole], the EC50 came to 110 nM. Moreover, under setting [1], the Emax was found to be 74%.
The corresponding values for `Cc1nc(-c2cc(-c3cccc(S(C)(=O)=O)c3)ccc2-n2cc(C(F)(F)F)nc2C)c(-c2cc(Cl)cc(Cl)c2)o1` [Example 455, 5-(3,5-dichlorophenyl)-2-methyl-4-(4-(2-methyl-4-(trifluoromethyl)-1H-imidazol-1-yl)-3′-(methylsulfonyl)biphenyl-3-yl)oxazole] are 192 nM and 43%.
The corresponding values for `Cc1nc(-c2cc(-c3cccc(S(C)(=O)=O)c3)ccc2-n2cc(C(F)(F)F)nc2C)c(-c2cc(F)c(OC(F)F)c(F)c2)o1` [Example 367, (4-(difluoromethoxy)-3,5-difluorophenyl)-2-methyl-4-(4-(2-methyl-4-(trifluoromethyl)-1H-imidazol-1-yl)-3′-(methylsulfonyl)-[, 1′-biphenyl]-3-yl)oxazole] are 175 nM and 78%.
With `Cc1nc(-c2cc(-c3cccc(S(C)(=O)=O)c3)ccc2-n2cc(C(C)O)nc2C)c(-c2ccc3c(c2)OC(F)(F)O3)o1` (single isomer, unassigned) [Example 372, 1-(1-(3-(5-(2,2-difluorobenzo[d][1,3]dioxol-5-yl)-2-methyloxazol-4-yl)-3′-(methylsulfonyl)-[1,1′-biphenyl]-4-yl)-2-methyl-1H-imidazol-4-yl) ethanol], the EC50 was determined as 838 nM. Also, the “% Efficacy” value under setting [1] is 33%.
`Cc1nc(-c2cc(-c3cc(F)c(CO)c(S(C)(=O)=O)c3)ccc2-n2cc(C(F)(F)F)nc2C)c(-c2ccc(OCC3CC3)c(F)c2)o1` [Example 405, (3′-(5-(4-(cyclopropylmethoxy)-3-fluorophenyl)-2-methyloxazol-4-yl)-3-fluoro-4′-(2-methyl-4-(trifluoromethyl)-1H-imidazol-1-yl)-5-(methylsulfonyl)biphenyl-4-yl)methanol] returned an EC50 of 68 nM. Under setting [1], the Emax came out at 59%.
On to `CCC(F)(F)c1cn(-c2ccc(-c3cccc(S(C)(=O)=O)c3)cc2-c2ocnc2-c2ccc(OC(F)(F)F)cc2)c(C)n1` [Example 364, 5-{4-[4-(1,1-difluoropropyl)-2-methyl-1H-imidazol-1-yl]-3′-(methylsulfonyl)biphenyl-3-yl}-4-{4-[(trifluoromethyl)oxy]phenyl}-1,3-oxazole], for which it took 410 nM to reach a half-maximal effect (EC50). Moreover, under setting [1], the Emax was 55%.
Compound `Cc1ccc(-c2oc(C)nc2-c2cc(-c3cccc(S(C)(=O)=O)c3)ccc2-n2cc(C(F)(F)F)nc2C)cc1` [Example 491, 2-methyl-4-(4-(2-methyl-4-(trifluoromethyl)-1H-imidazol-1-yl)-3′-(methylsulfonyl)-[1,1′-biphenyl]-3-yl)-5-(p-tolyl)oxazole] came in with an EC50 of 63 nM. Also, the Emax under setting [1] amounted to 71%.
